Assays:
cotton (Go) = test: Test Example 4: crop plant selectivity by upland field soil treatment (cotton), phytotoxicity; assay type: in vivo; parameters: scale not given here; details: evaluated 21st day after application
In short: (§1)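 Weeds and cotton, sown in sand and topped with soil, received a soil-applied treatment. Evaluation after three weeks in a greenhouse followed a standard rating scale.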

Diaitaria ciliaris (Di) = test: Test Example 4: crop plant selectivity by upland field soil treatment (cotton), herbicidal effects; assay type: in vivo; details: evaluated 21st day after application
Procedure: (Test on Crop Plant Selectivity by Upland Field Soil Treatment)
In a plastic pot (surface area: 600 cm^2) filled with sand, cotton (Go), Diaitaria ciliaris (Di), green foxtail (Se), pale smartweed (Po), slender amaranth (Am), common lambsquarters (Ch) and China jute (Ab) were sown and covered with soil. […] The plants were then cultured in a green house, and the evaluation of the herbicidal effects and phytotoxicity was conducted on the 21st day after the application in accordance with the standards as identified in Table 47. Symbol—represents “not tested”.

China jute (Ab) [1] = test: as above; assay type: in vivo; parameters: scale not given here; details: evaluated 21st day after application
In short: as §1

[2] = tested on: common lambsquarters (Ch); test: as above; assay type: in vivo; parameters: scale not given here; details: evaluated 21st day after application
In short: as §1

green foxtail (Se) = test: as above; assay type: in vivo; parameters: scale not given here; details: evaluated 21st day after application
In short: as §1

pale smartweed (Po) = test: as above; assay type: in vivo; parameters: scale not given here; details: evaluated 21st day after application
In short: as §1

slender amaranth (Am) = test: as above; assay type: in vivo; parameters: scale not given here; details: evaluated 21st day after application
In short: as §1

wheat (Tr) = test: Test Example 9: crop plant selectivity by upland field foliage treatment (wheat), phytotoxicity; details: dose 1.6 g ai/10a, 14th day after treatment;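 also: grade of crop injury; 5 = at least 90%; 4 = 70 to 90%; 3 = 50 to 70%; 2 = 30 to 50%; 1 = 10 to 30%; 0 = under 10%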
In short: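 Wheat and weeds sown in sand-filled pots, grown 2 weeks in a greenhouse, then foliage-treated. Herbicidal effect and crop phytotoxicity were scored 14 days after treatment against a rating scale.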

China jute (Ab) [3] = test: Test Example 11: crop plant selectivity by upland field foliage treatment (corn), herbicidal effects; assay type: in vivo; parameters: scale not given here; details: upland field foliage treatment (corn test), dose 1.6 g ai/10a, 14th day after treatment
In short: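 Corn with pale smartweed, slender amaranth, common lambsquarters and China jute sown in sand-filled pots and grown 2 weeks in a greenhouse before foliage treatment. Herbicidal effect and crop phytotoxicity scored on day 14 after treatment against a rating standard.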

Row | SMILES | Phytotoxicity Go (cotton (Go); dose 1.6 g ai/10 a) | Phytotoxicity Go (cotton (Go); dose 6.3 g ai/10 a) | Herbicidal effects Di (Diaitaria ciliaris (Di); dose 6.3 g ai/10 a) | Herbicidal effects Ab (China jute (Ab) [1]; dose 1.6 g ai/10 a) | Herbicidal effects Ab (China jute (Ab) [1]; dose 6.3 g ai/10 a) | Herbicidal effects Ch ([2]; dose 1.6 g ai/10 a) | Herbicidal effects Ch ([2]; dose 6.3 g ai/10 a) | Herbicidal effects Se (green foxtail (Se); dose 1.6 g ai/10 a) | Herbicidal effects Se (green foxtail (Se); dose 6.3 g ai/10 a) | Herbicidal effects Po (pale smartweed (Po); dose 1.6 g ai/10 a) | Herbicidal effects Po (pale smartweed (Po); dose 6.3 g ai/10 a) | Herbicidal effects Am (slender amaranth (Am); dose 1.6 g ai/10 a) | Herbicidal effects Am (slender amaranth (Am); dose 6.3 g ai/10 a) | Phytotoxicity Tr (wheat (Tr)) | Herbicidal effects Ab (China jute (Ab) [3]) | Herbicidal effects Di (Diaitaria ciliaris (Di); dose 1.6 g ai/10 a)
1 | COc1cc(-c2ccc(C(F)(F)F)n(C)c2=O)c(F)cc1Cl [1-15] | 0 | 1 | 5 | 5 | 5 | 5 | 5 | 5 | 5 | 5 | 5 | 5 | 5 |  |  | 
2 | CCOC(=O)c1cc(-c2ccc(C(F)(F)F)n(C)c2=O)c(F)cc1Cl [1-65] | 0 | 0 |  | 5 | 5 | 5 | 5 | 5 | 5 | 5 | 5 | 5 | 5 | 2 | 5 | 
3 | C#CCOc1cc(-c2ccc(C(F)(F)F)n(N)c2=O)c(F)cc1Cl [1-178] | 1 | 1 |  | 5 | 5 | 5 | 5 | 5 | 5 | 5 | 5 | 5 | 5 | 2 | 5 | 
4 | COc1cc(-c2ccc(C(F)(F)F)n(N)c2=O)c(F)cc1Cl [1-179] |  | 0 |  |  | 5 |  | 5 |  | 5 |  | 5 |  | 5 | 2 | 5 | 
5 | CCOCOc1cc(-c2ccc(C(F)(F)F)n(C)c2=O)c(F)cc1Cl [1-181] |  | 0 |  |  | 5 |  | 5 |  | 5 |  | 5 |  | 5 | 2 | 5 | 
6 | C#CC(C)Oc1cc(Cl)cc(F)c1-c1ccc(C(F)(F)F)n(C)c1=O (stereo not shown) [1′-5] | 0 | 0 |  | 5 | 5 | 5 | 5 | 4 | 5 | 5 | 5 | 5 | 5 | 1 | 5 | 
7 | C=CC(C)Oc1cc(-c2ccc(C(F)(F)F)n(C)c2=O)c(F)cc1Cl (stereo not shown) [Compound 1-182] |  | 0 |  |  | 5 |  | 5 |  | 5 |  | 5 |  | 5 | 1 | 5 | 
8 | CCOC(=O)CON=Cc1cc(-c2ccc(C(F)(F)F)n(C)c2=O)c(F)cc1Cl [Compound 1-191] |  | 1 |  |  | 5 |  | 5 |  | 5 |  | 5 |  | 5 | 2 | 5 | 
9 | C=CC(O)c1cc(-c2ccc(C(F)(F)F)n(C)c2=O)c(F)cc1Cl (stereo not shown) [Compound 1-197] |  | 1 |  |  | 5 |  | 5 |  | 5 |  | 5 |  | 5 | 2 | 5 | 
10 | C=CCN1C(=O)COc2cc(F)c(-c3ccc(C(F)(F)F)n(C)c3=O)cc21 [Compound 2-7] | 0 | 1 | 5 | 5 | 5 | 4 | 5 | 4 | 5 | 5 | 5 | 5 | 5 |  |  | 5
11 | C#CCN1C(=O)COc2cc(Cl)c(-c3ccc(C(F)(F)F)n(C)c3=O)cc21 [Compound 2-25] | 0 | 0 |  | 5 | 5 | 5 | 5 | 5 | 5 | 5 | 5 | 5 | 5 | 2 | 5 | 
12 | C=CCN1C(=O)COc2cc(Cl)c(-c3ccc(C(F)(F)F)n(C)c3=O)cc21 [Compound 2-26] |  | 1 |  |  | 5 |  | 5 |  | 5 |  | 5 |  | 5 | 2 | 5 | 
13 | CCCC(=O)c1cc(-c2ccc(C(F)(F)F)n(C)c2=O)c(F)cc1Cl [Compound No. 1-194, 3-[4-chloro-2-fluoro-5-(1-oxobutyl)phenyl]-1-methyl-6-trifluoromethyl-2(1H)-pyridone] |  | 1 |  |  | 5 |  | 5 |  | 5 |  | 5 |  | 5 | 1 | 5 | 
14 | Cn1c(C(F)(F)F)ccc(-c2c(F)cc(Cl)c3oc(CO)cc23)c1=O [Compound No. 4-5, 3-(7-chloro-5-fluoro-2-hydroxymethylbenzofuran-4-yl)-1-methyl-6-trifluoromethyl-2-(1H)-pyridone] |  | 2 |  |  | 5 |  | 5 |  | 5 |  | 5 |  | 5 | 2 | 5 | 
15 | Cn1c(C(F)(F)F)ccc(-c2c(F)cc(Cl)c3occc23)c1=O [Compound No. 4-28, 3-(7-chloro-5-fluorobenzofuran-4-yl)-1-methyl-6-trifluoromethyl-2-(1H)-pyridone] | 0 | 1 |  | 5 | 5 | 5 | 5 | 5 | 5 | 5 | 5 | 5 | 5 | 2 | 5 | 
16 | Cn1cc(-c2cc(Oc3ccccc3)c(Cl)cc2F)c(=O)cc1C(F)(F)F [Compound No. 6-19, 5-(4-chloro-2-fluoro-5-phenoxyphenyl)-1-methyl-2-trifluoromethyl-4(1H)-pyridone] | 0 | 0 | 5 | 3 | 5 | 5 | 5 | 5 | 5 | 5 | 5 | 5 | 5 |  |  | 5
